Assay: mn = molality of the nth substance listed, in mol/kg
Conditions: 101.3 kPa, Liquid

NCCCC(=O)O [4-aminobutanoic acid] + O
Conditions | speed of sound [m/s]
278.15 K, Frequency=2 MHz, Linear variable-path acoustic interferometer, m1 = 0.0495 | 1431.4
278.15 K, Frequency=2 MHz, Linear variable-path acoustic interferometer, m1 = 0.0732 | 1433.1
278.15 K, Frequency=2 MHz, Linear variable-path acoustic interferometer, m1 = 0.0959 | 1435.4
278.15 K, Frequency=2 MHz, Linear variable-path acoustic interferometer, m1 = 0.1193 | 1436.9
278.15 K, Frequency=2 MHz, Linear variable-path acoustic interferometer, m1 = 0.1412 | 1439
278.15 K, Frequency=2 MHz, Linear variable-path acoustic interferometer, m1 = 0.1828 | 1442.1
278.15 K, Frequency=2 MHz, Linear variable-path acoustic interferometer, m1 = 0.2085 | 1444.1
278.15 K, Frequency=2 MHz, Linear variable-path acoustic interferometer, m1 = 0.2388 | 1446.9
278.15 K, Frequency=2 MHz, Linear variable-path acoustic interferometer, m1 = 0.2699 | 1449.7
278.15 K, Frequency=2 MHz, Linear variable-path acoustic interferometer, m1 = 0.2922 | 1452.3
278.15 K, Frequency=2 MHz, Linear variable-path acoustic interferometer, m1 = 0.3224 | 1455.4
278.15 K, Frequency=2 MHz, Linear variable-path acoustic interferometer, m1 = 0.3534 | 1457.4
288.15 K, Frequency=3 MHz, Sing-around technique in a fixed-path interferometer, m1 = 0.0554 | 1470.3
288.15 K, Frequency=3 MHz, Sing-around technique in a fixed-path interferometer, m1 = 0.0877 | 1472.6
288.15 K, Frequency=3 MHz, Sing-around technique in a fixed-path interferometer, m1 = 0.0989 | 1473.5
288.15 K, Frequency=3 MHz, Sing-around technique in a fixed-path interferometer, m1 = 0.1173 | 1474.9
288.15 K, Frequency=3 MHz, Sing-around technique in a fixed-path interferometer, m1 = 0.1538 | 1479
288.15 K, Frequency=3 MHz, Sing-around technique in a fixed-path interferometer, m1 = 0.1809 | 1481.1
288.15 K, Frequency=3 MHz, Sing-around technique in a fixed-path interferometer, m1 = 0.211 | 1483
288.15 K, Frequency=3 MHz, Sing-around technique in a fixed-path interferometer, m1 = 0.2389 | 1484.6
288.15 K, Frequency=3 MHz, Sing-around technique in a fixed-path interferometer, m1 = 0.2692 | 1486.5
288.15 K, Frequency=3 MHz, Sing-around technique in a fixed-path interferometer, m1 = 0.2861 | 1489.5
288.15 K, Frequency=3 MHz, Sing-around technique in a fixed-path interferometer, m1 = 0.3181 | 1492.3
288.15 K, Frequency=3 MHz, Sing-around technique in a fixed-path interferometer, m1 = 0.3496 | 1494.9
298.15 K, Frequency=3 MHz, Sing-around technique in a fixed-path interferometer, m1 = 0.0494 | 1501.1
298.15 K, Frequency=3 MHz, Sing-around technique in a fixed-path interferometer, m1 = 0.0781 | 1503.4
298.15 K, Frequency=3 MHz, Sing-around technique in a fixed-path interferometer, m1 = 0.1017 | 1505.1
298.15 K, Frequency=3 MHz, Sing-around technique in a fixed-path interferometer, m1 = 0.1227 | 1506.8
298.15 K, Frequency=3 MHz, Sing-around technique in a fixed-path interferometer, m1 = 0.1469 | 1508.9
298.15 K, Frequency=3 MHz, Sing-around technique in a fixed-path interferometer, m1 = 0.1846 | 1511.8
298.15 K, Frequency=3 MHz, Sing-around technique in a fixed-path interferometer, m1 = 0.1944 | 1512.8
298.15 K, Frequency=3 MHz, Sing-around technique in a fixed-path interferometer, m1 = 0.245 | 1516.7
298.15 K, Frequency=3 MHz, Sing-around technique in a fixed-path interferometer, m1 = 0.2746 | 1519.2
298.15 K, Frequency=3 MHz, Sing-around technique in a fixed-path interferometer, m1 = 0.2975 | 1521.1
298.15 K, Frequency=3 MHz, Sing-around technique in a fixed-path interferometer, m1 = 0.3196 | 1522.6
298.15 K, Frequency=3 MHz, Sing-around technique in a fixed-path interferometer, m1 = 0.3477 | 1525

Conditions | mass density [kg/m3]
278.15 K, Pycnometric method, m1 = 0.0495 | 1001.55
278.15 K, Pycnometric method, m1 = 0.0732 | 1002.25
278.15 K, Pycnometric method, m1 = 0.0959 | 1002.93
278.15 K, Pycnometric method, m1 = 0.1193 | 1003.65
278.15 K, Pycnometric method, m1 = 0.1412 | 1004.35
278.15 K, Pycnometric method, m1 = 0.1828 | 1005.72
278.15 K, Pycnometric method, m1 = 0.2085 | 1006.55
278.15 K, Pycnometric method, m1 = 0.2388 | 1007.5
278.15 K, Pycnometric method, m1 = 0.2699 | 1008.41
278.15 K, Pycnometric method, m1 = 0.2922 | 1009.03
278.15 K, Pycnometric method, m1 = 0.3224 | 1009.87
278.15 K, Pycnometric method, m1 = 0.3534 | 1010.83
288.15 K, Vibrating tube method, m1 = 0.0554 | 1000.83
288.15 K, Vibrating tube method, m1 = 0.0877 | 1001.66
288.15 K, Vibrating tube method, m1 = 0.0989 | 1002.15
288.15 K, Vibrating tube method, m1 = 0.1173 | 1002.71
288.15 K, Vibrating tube method, m1 = 0.1538 | 1003.54
288.15 K, Vibrating tube method, m1 = 0.1809 | 1004.28
288.15 K, Vibrating tube method, m1 = 0.211 | 1005.14
288.15 K, Vibrating tube method, m1 = 0.2389 | 1006.01
288.15 K, Vibrating tube method, m1 = 0.2692 | 1006.87
288.15 K, Vibrating tube method, m1 = 0.2861 | 1007.43
288.15 K, Vibrating tube method, m1 = 0.3181 | 1008.36
288.15 K, Vibrating tube method, m1 = 0.3496 | 1009.41
298.15 K, Vibrating tube method, m1 = 0.0494 | 998.48
298.15 K, Vibrating tube method, m1 = 0.0781 | 999.35
298.15 K, Vibrating tube method, m1 = 0.1017 | 1000.09
298.15 K, Vibrating tube method, m1 = 0.1227 | 1000.7
298.15 K, Vibrating tube method, m1 = 0.1469 | 1001.41
298.15 K, Vibrating tube method, m1 = 0.1846 | 1002.51
298.15 K, Vibrating tube method, m1 = 0.1944 | 1002.74
298.15 K, Vibrating tube method, m1 = 0.245 | 1004.3
298.15 K, Vibrating tube method, m1 = 0.2746 | 1004.99
298.15 K, Vibrating tube method, m1 = 0.2975 | 1005.61
298.15 K, Vibrating tube method, m1 = 0.3196 | 1006.38
298.15 K, Vibrating tube method, m1 = 0.3477 | 1007.09

From the NIST ThermoML archive (doi:10.1016/j.jct.2015.09.020)
